In patent US20260242416A1, “ANTIMICROBIAL PEPTIDES” (priority 2023, published 2026):
In brackets after ≈: the same amount, converted by molar mass. Entries after “also recorded” stand apart in the source; their conditions may differ. Like-named read-outs stand apart in the source and are kept apart here. Where a SMILES comes first, the peptide text is derived from it.

Assays:
[1] = tested on: E. coli ATCC 25922, Salmonella Enteritidis, S. aureus ATCC 29213; assay: Broth microdilution, panel result (at least one / all strains), Example 2; format: cell-based; parameters: key to inhibitory activity (asterisk): *Indicates inhibitory activity; conditions: for inhibitory activity (asterisk): Table 14, against at least one of E. coli ATCC 25922, Salmonella Enteritidis, S. aureus ATCC 29213; for spectrum of antimicrobial activity: panel of E. coli, Salmonella Enteritidis, S. aureus, up to 128 μg/mL
In short: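 CLSI broth microdilution adapted for cationic peptides, in MHB with a final inoculum of 2-8×10^5 cfu/mL in polypropylene plates. Peptides were serially diluted from 128 down to 0.5 μg/mL and incubated 20-24 h at 37° C. MIC is the lowest concentration with no visible growth.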

[2] = tested on: Escherichia coli ATCC 25922; assay: Antimicrobial susceptibility testing (MIC/MBC), Example 1; format: cell-based; conditions: Table 3; footnote: wild-type Escherichia coli ATCC 29522; minimum of three independent experiments
Procedure: Twenty-one putative AMP sequences identified using the rAMPage pipeline were validated through a minimum of three AST experiments performed independently on separate days. In these tests, the AMP activity was assessed using two metrics: minimum inhibitory concentration and minimum bactericidal concentration (MIC and MBC, respectively). MIC and MBC values were determined using procedures outlined by the Clinical and Laboratory Standards Institute (CLSI), with the recommended adaptations for the testing of cationic AMPs described previously. “Wild-type” strains of Escherichia coli (E. coli 25922) and Staphylococcus aureus (S. aureus 29213) were purchased from the American Type Culture Collection (ATCC; Manassas, VA, USA) and were used for screening of antimicrobial activity. Briefly, putative AMPs were synthesized by Genscript (Piscataway, NJ, USA) and received in lyophilized format. These peptides were suspended using ultrapure water (Life Technologies, Grand Island, NY, USA; Invitrogen cat #10977-015), and an 11 μL two-fold serial dilution of 1280 to 2.5 μg/mL was prepared in duplicate rows in a 96-well microtiter plate, before being combined with 100 μL standardized bacterial inoculum yielding a final duplicate testing range of 128 to 0.25 μg/mL. The bacterial inoculum was prepared using colonies isolated on non-selective agar and combined with Mueller Hinton Broth. This suspension was measured and adjusted to achieve an optical density of 0.08-0.1, equivalent to a 0.5 McFarland standard (1-2×10^8 cfu/mL). The inoculum was then diluted to a target concentration of 5±3×10^5 cfu/mL; total viable counts from the final inoculum were routinely performed to confirm the target bacterial density was achieved. […] The MIC and adjacent wells were plated onto non-selective agar; the concentration in which killed 99.9% of the inoculum following additional overnight incubation was determined to be the MBC.

E. coli ATCC 25922 = format: cell-based, Escherichia coli
In short: (§1)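 CLSI broth microdilution adapted for cationic peptides, in Mueller-Hinton broth, inoculum 2-8×10^5 cfu/mL. Peptides serially diluted from 128 to 0.5 μg/mL in polypropylene plates, incubated 20-24 h at 37° C. MIC = lowest concentration without visible growth.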

S. aureus ATCC 29213 = format: cell-based, Staphylococcus aureus; conditions: for MIC (ug/mL) S. aureus: ATCC 29213
In short: as §1

HEK293 cells = assay: alamarBlue cell viability assay (cytotoxicity); format: cell-based, human; conditions: concentrations up to 128 μg/mL
Procedure: (§2) The human embryonic kidney cell line HEK293 and the corresponding growth media and supplements were purchased from the ATCC. The cells were maintained in Eagle's Minimum Essential Medium (EMEM) supplemented with 10% fetal bovine serum (FBS) and 1% Penicillin-Streptomycin solution and grown in a 5% CO2 incubator at 37° C. […] Cells were incubated overnight to allow them to adhere. […] TX-100 was diluted to 2% in UltraPure deionized water and added as a positive control. Complete growth medium was added to the peptides and TX-100 containing wells. Spent growth medium of wells with adhered cells was replaced with the contents of wells containing serially diluted peptides or TX-100. Cells were incubated for four hours at 37° C. in 5% CO2 incubator. Growth medium containing peptides or TX-100 was replaced with fresh growth medium containing 10% (v/v) alamarBlue (Bio-Rad Laboratories, Hercules, CA, USA) and incubated for 20 h. Fluorescence was measured at excitation of 540 nm and emission of 590 nm in a Cytation 5 plate reader (Agilent BioTek, Winooski, VT, USA) and results recorded and analyzed with Gen5 software (Agilent BioTek, Winooski, VT, USA). The average fluorescence reads of TX-100 and growth media only wells were used to calculate 0% and 100% cell viability, respectively. The percentage of viable cells at each peptide concentration was determined by Formula 1: […]

[3] = alamarBlue cell viability assay (cytotoxicity); format: cell-based, human; conditions: human, HEK293 cells; for viability at 4 h, 64 µg/mL: at 64 μg/mL; for viability at 4 h, 128 µg/mL: at 128 μg/mL
Procedure: as §2

[4] = tested on: Salmonella enterica serovar Enteritidis (human clinical isolate); format: cell-based; conditions: serovar Enteritidis (human clinical isolate)
In short: as §1

Row | SMILES | inhibitory activity (asterisk) [1] | MIC* (μg/mL) E. coli [2] [µg⁻¹ mL⁻¹] | spectrum of antimicrobial activity [1] | MIC against E. coli (E. coli ATCC 25922) [µg/mL] | MIC (ug/mL) S. aureus (S. aureus ATCC 29213) [µg/mL] | cytotoxicity (HEK293 cells) | viability at 4 h, 64 µg/mL [3] [%] | viability at 4 h, 128 µg/mL [3] [%] | MIC (ug/mL) S. Enteritidis [4] [µg/mL] | MIC (ug/mL) E. coli (E. coli ATCC 25922; ATCC 25922) [µg/mL] | MIC against E. coli (E. coli ATCC 25922; ATCC 25922) [µg/mL] | MIC against Salmonella Enteritidis [4] [µg/mL] | MIC against S. aureus (S. aureus ATCC 29213) [µg/mL]
1 | CC[C@H](C)[C@H](NC(=O)CN)C(=O)N[C@@H](CC(C)C)C(=O)N[C@@H](CC(=O)O)C(=O)N[C@H](C(=O)N[C@@H](CC(C)C)C(=O)N[C@@H](CCCCN)C(=O)N[C@@H](CCC(N)=O)C(=O)N[C@@H](CC(C)C)C(=O)NCC(=O)N[C@@H](CCCCN)C(=O)N[C@@H](C)C(=O)N[C@@H](C)C(=O)N[C@H](C(=O)N[C@@H](CCC(N)=O)C(=O)NCC(=O)N[C@@H](CC(C)C)C(=O)N[C@@H](CC(C)C)C(=O)N[C@@H](CO)C(=O)N[C@@H](CCCCN)C(=O)N[C@@H](C)C(=O)N[C@@H](C)C(=O)N[C@@H](CS)C(=O)N[C@@H](CCCCN)C(=O)N[C@@H](CC(C)C)C(=O)N[C@@H](C)C(=O)N[C@@H](CCCCN)C(=O)N[C@H](C(=O)N[C@@H](CS)C(=O)O)[C@@H](C)O)C(C)C)[C@@H](C)O [AmMa1] (H-GILDTLKQLGKAAVQGLLSKAACKLAKTC-OH; N-terminus and C-terminus assumed) | 12.* GILDTLKQLGKAAVQGLLSKAACKLAKTC | 2 to 4 |  |  |  |  |  |  |  |  |  |  | 
2 | CC[C@H](C)[C@H](NC(=O)CNC(=O)[C@H](CCCNC(=N)N)NC(=O)[C@H](CC(C)C)NC(=O)[C@H](CC(C)C)NC(=O)CN)C(=O)N[C@@H](CC(C)C)C(=O)NCC(=O)N[C@@H](C)C(=O)NCC(=O)N[C@@H](CCCCN)C(=O)N[C@@H](CCCCN)C(=O)N[C@H](C(=O)N[C@H](C(=O)N[C@@H](CS)C(=O)NCC(=O)N[C@@H](CC(C)C)C(=O)N[C@@H](CO)C(=O)NCC(=O)N[C@@H](CC(C)C)C(=O)N[C@@H](CS)C(=O)O)C(C)C)[C@@H](C)CC [OdMa2] (H-GLLRGILGAGKKIVCGLSGLC-OH; N-terminus and C-terminus assumed) | 64.* GLLRGILGAGKKIVCGLSGLC |  | active against all three bacteria | 4 (≈ 1.97 µM) | 4 to 8 | high levels of cytotoxicity at concentrations higher than their MICs | < 75 | ~0 | 8 to 16 |  |  |  | 
3 | CC[C@H](C)[C@H](NC(=O)[C@H](CCCCN)NC(=O)[C@H](CS)NC(=O)[C@H](CCCCN)NC(=O)[C@H](CC(C)C)NC(=O)[C@H](CC(N)=O)NC(=O)[C@H](Cc1ccc(O)cc1)NC(=O)[C@H](CC(C)C)NC(=O)[C@H](CC(C)C)NC(=O)[C@@H](NC(=O)[C@@H](NC(=O)[C@H](C)NC(=O)[C@@H](NC(=O)[C@H](CC(N)=O)NC(=O)[C@H](CCCCN)NC(=O)[C@H](C)NC(=O)[C@@H](NC(=O)[C@H](CC(N)=O)NC(=O)[C@H](CCCCN)NC(=O)[C@H](C)NC(=O)[C@@H](NC(=O)[C@H](CC(=O)O)NC(=O)[C@H](CCSC)NC(=O)[C@H](Cc1ccccc1)NC(=O)CN)[C@@H](C)O)C(C)C)C(C)C)C(C)C)[C@@H](C)O)C(=O)N[C@H](C(=O)N[C@@H](CCCCN)C(=O)N[C@@H](C)C(=O)N[C@@H](CS)C(=O)O)[C@@H](C)O [OdMa12] (H-GFMDTAKNVAKNVAVTLLYNLKCKITKAC-OH; N-terminus and C-terminus assumed) | 69.* GFMDTAKNVAKNVAVTLLYNLKCKITKAC | 4 |  |  |  |  |  |  |  |  |  |  | 
4 | CC(C)C[C@H](NC(=O)[C@H](CCCNC(=N)N)NC(=O)[C@@H]1CCCN1C(=O)[C@H](Cc1c[nH]cn1)NC(=O)[C@@H]1CCCN1C(=O)[C@@H]1CCCN1C(=O)[C@H](CCCNC(=N)N)NC(=O)[C@@H]1CCCN1C(=O)[C@@H]1CCCN1C(=O)[C@@H](NC(=O)[C@H](CCC(N)=O)NC(=O)[C@H](CCC(N)=O)NC(=O)[C@@H]1CCCN1C(=O)[C@H](CCCNC(=N)N)NC(=O)[C@@H]1CCCN1C(=O)[C@@H](N)CCCNC(=N)N)C(C)C)C(=O)N[C@@H](CCCNC(=N)N)C(=O)N[C@@H](CCCNC(=N)N)C(=O)O [PaVa1, RPRPQQVPPRPPHPRLRR] (H-RPRPQQVPPRPPHPRLRR-OH) |  |  |  |  | > 128 | not to be toxic to HEK293 cells at any of the concentrations tested; also recorded: not toxic against either porcine erythrocytes or HEK293 cells |  |  | 4 to 8 | 2 to 4 | 2 to 4 | 4 to 8 | 
5 | CC(C)C[C@H](NC(=O)CNC(=O)[C@@H](NC(=O)[C@@H](NC(=O)CNC(=O)[C@H](CS)NC(=O)[C@H](CC(C)C)NC(=O)[C@@H](NC(=O)[C@H](CCCCN)NC(=O)[C@H](CCCCN)NC(=O)CNC(=O)[C@@H](NC(=O)CNC(=O)[C@H](CC(C)C)NC(=O)[C@@H](NC(=O)[C@H](CCCCN)NC(=O)CNC(=O)[C@H](CC(C)C)NC(=O)[C@H](CC(C)C)NC(=O)CN)C(C)C)C(C)C)C(C)C)C(C)C)[C@@H](C)O)C(=O)N[C@@H](CS)C(=O)O [PeNi1] (H-GLLGKVLGVGKKVLCGVTGLC-OH; N-terminus and C-terminus assumed) | 363.* GLLGKVLGVGKKVLCGVTGLC |  | active against all three bacteria | 4 (≈ 1.99 µM) |  | high levels of cytotoxicity at concentrations higher than their MICs | < 75 | ~0 | 8 to 16 |  |  |  | 4 (≈ 1.99 µM)
6 | CC[C@H](C)[C@H](NC(=O)[C@H](CCCCN)NC(=O)CNC(=O)[C@H](CC(C)C)NC(=O)[C@H](CC(C)C)NC(=O)CN)C(=O)N[C@@H](CC(C)C)C(=O)NCC(=O)N[C@H](C(=O)NCC(=O)N[C@@H](CCCCN)C(=O)N[C@@H](CCCCN)C(=O)N[C@H](C(=O)N[C@@H](CC(C)C)C(=O)N[C@@H](CS)C(=O)NCC(=O)N[C@H](C(=O)N[C@@H](CO)C(=O)NCC(=O)N[C@@H](CC(C)C)C(=O)N[C@@H](CS)C(=O)O)C(C)C)C(C)C)C(C)C [PeNi9] (H-GLLGKILGVGKKVLCGVSGLC-OH; N-terminus and C-terminus assumed) | 32.* GLLGKILGVGKKVLCGVSGLC |  | active against all three bacteria |  | 4 to 8 | low or no cytotoxicity at lower concentrations; also recorded: high levels of cytotoxicity at concentrations higher than their MICs |  | 0 | 8 to 16 | 2 to 4 |  |  | 
